Test results: patent US20260262643A1, “HERBICIDAL BENZOXAZINES” (FMC CORPORATION, priority 2022, published 2026)

Experiments:
barnyardgrass [1] = test: Test C preemergence; type: in vivo, Echinochloa crusgalli; details: 0 to 100 scale (0 no effect, 100 complete control); for Barnyardgrass plant response rating: 125 g ai/ha, preemergence; for Plant response rating, Barnyardgrass: Preemergence, 500 g ai/ha, visual rating after 10 days
Method in brief: (§1)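 Seeds sown in loam soil–sand blend received a directed preemergence soil spray of test chemical in non-phytotoxic solvent with surfactant; postemergence plants (2–10 cm, one- to two-leaf stage) were sprayed with the same formulation. Greenhouse-held 10 days, then visually rated for injury versus untreated controls, 0 (no effect) to 100 (complete control).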

blackgrass [2] = test: Test C preemergence; type: in vivo, Alopecurus myosuroides; details: 0 to 100 scale (0 no effect, 100 complete control); for Plant response rating, Blackgrass: Preemergence, 500 g ai/ha, visual rating after 10 days; for Blackgrass plant response rating: Test C, preemergence, 125 g ai/ha
Method in brief: as §1

corn [3] = test: Test C preemergence; type: in vivo, Zea mays; details: 0 to 100 scale (0 no effect, 100 complete control); for Corn plant response rating: Test C, preemergence, 125 g ai/ha
Method in brief: as §1

green foxtail [4] = test: Test C preemergence; type: in vivo, Setaria viridis; details: 0 to 100 scale (0 no effect, 100 complete control); for Plant response rating, Foxtail, Green: Preemergence, 500 g ai/ha, visual rating after 10 days; for Foxtail, Green plant response rating: Test C, preemergence, 125 g ai/ha
Method in brief: as §1

kochia [5] = test: Test C preemergence; type: in vivo, Bassia scoparia; details: 0 to 100 scale (0 no effect, 100 complete control); for Plant response rating, Kochia: Preemergence, 500 g ai/ha, visual rating after 10 days; for Kochia plant response rating: Test C, preemergence, 125 g ai/ha
Method in brief: as §1

oat, wild [6] = test: Test C preemergence; type: in vivo, Avena fatua; details: 0 to 100 scale (0 no effect, 100 complete control); for Plant response rating, Oat, Wild: Preemergence, 500 g ai/ha, visual rating after 10 days; for Oat, Wild plant response rating: Test C, preemergence, 125 g ai/ha
Method in brief: as §1

pigweed, palmer [7] = test: Test C preemergence; type: in vivo, Amaranthus palmeri; details: 0 to 100 scale (0 no effect, 100 complete control); for Plant response rating, Pigweed, Palmer: Preemergence, 500 g ai/ha, visual rating after 10 days; for Pigweed, Palmer plant response rating: Test C, preemergence, 125 g ai/ha
Method in brief: as §1

ragweed [8] = test: Test C preemergence; type: in vivo, Ambrosia artemisiifolia; details: 0 to 100 scale (0 no effect, 100 complete control); for Plant response rating, Ragweed: Preemergence, 500 g ai/ha, visual rating after 10 days; for Ragweed plant response rating: Test C, preemergence, 125 g ai/ha
Method in brief: as §1

ryegrass, Italian [9] = test: Test C preemergence; type: in vivo, Lolium multiflorum; details: 0 to 100 scale (0 no effect, 100 complete control); for Plant response rating, Ryegrass, Italian: Preemergence, 500 g ai/ha, visual rating after 10 days; for Ryegrass, Italian plant response rating: Test C, preemergence, 125 g ai/ha
Method in brief: as §1

soybean [10] = test: Test C preemergence; type: in vivo, Glycine max; details: 0 to 100 scale (0 no effect, 100 complete control); for Plant response rating, Soybean: Preemergence, 500 g ai/ha, visual rating after 10 days; for Soybean plant response rating: Test C, preemergence, 125 g ai/ha
Method in brief: as §1

wheat [11] = test: Test C preemergence; type: in vivo, Triticum aestivum; details: 0 to 100 scale (0 no effect, 100 complete control); for Plant response rating, Wheat: Preemergence, 500 g ai/ha, visual rating after 10 days; for Wheat plant response rating: Test C, preemergence, 125 g ai/ha
Method in brief: as §1

barnyardgrass [12] = test: Test C postemergence; type: in vivo, Echinochloa crusgalli; details: 10 days
Method in brief: as §1

blackgrass [13] = test: Test C postemergence; type: in vivo, Alopecurus myosuroides; details: 10 days
Method in brief: as §1

corn [14] = test: Test C postemergence; type: in vivo, Zea mays; details: 10 days
Method in brief: as §1

green foxtail [15] = test: Test C postemergence; type: in vivo, Setaria viridis; details: 10 days
Method in brief: as §1

kochia [16] = test: Test C postemergence; type: in vivo, Bassia scoparia; details: 10 days
Method in brief: as §1

oat, wild [17] = test: Test C postemergence; type: in vivo, Avena fatua; details: 10 days
Method in brief: as §1

pigweed, palmer [18] = test: Test C postemergence; type: in vivo, Amaranthus palmeri; details: 10 days
Method in brief: as §1

ragweed [19] = test: Test C postemergence; type: in vivo, Ambrosia artemisiifolia; details: 10 days
Method in brief: as §1

ryegrass, Italian [20] = test: Test C postemergence; type: in vivo, Lolium multiflorum; details: 10 days
Method in brief: as §1

soybean [21] = test: Test C postemergence; type: in vivo, Glycine max; details: 10 days
Method in brief: as §1

wheat [22] = test: Test C postemergence; type: in vivo, Triticum aestivum; details: 10 days
Method in brief: as §1

galium = test: Test C postemergence; type: in vivo, Galium aparine; details: 10 days
Method in brief: as §1

horseweed = test: Test C postemergence; type: in vivo, Erigeron canadensis; details: 10 days
Method in brief: as §1

barnyardgrass [23] = test: Test D flooded paddy test; type: in vivo, Echinochloa crus-galli; details: 250 g ai/ha, applied to paddy water, visual rating after 13 to 14 days, scale 0 to 100 (0 no effect, 100 complete control)
Method in brief: (§2)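 2-leaf plants; flood 3 cm above soil; compound dosed into paddy water; greenhouse 13–14 d; visual rating vs controls, 0–100 (100 = complete control); dash = not tested.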

ducksalad = test: Test D flooded paddy test; type: in vivo, Heteranthera limosa; details: 250 g ai/ha, applied to paddy water, visual rating after 13 to 14 days, scale 0 to 100 (0 no effect, 100 complete control)
Method in brief: as §2

rice = test: Test D flooded paddy test; type: in vivo, Oryza sativa; details: 250 g ai/ha, applied to paddy water, visual rating after 13 to 14 days, scale 0 to 100 (0 no effect, 100 complete control)
Method in brief: as §2

sedge, umbrella = test: Test D flooded paddy test; type: in vivo, Cyperus difformis; details: 250 g ai/ha, applied to paddy water, visual rating after 13 to 14 days, scale 0 to 100 (0 no effect, 100 complete control)
Method in brief: as §2

[24] = 125 g ai/ha, postemergence, 0 to 100 scale, 0 no effect, 100 complete control
[25] = Postemergence, 500 g ai/ha, visual 0 to 100 scale (0 no effect, 100 complete control)

## Cc1ccc(-n2cnc(C3(C(F)(F)F)CCC3)n2)cc1C(=O)N1C[C@H](C)Oc2c(Cl)cccc21 [Compound 168]
Barnyardgrass [1]
  Barnyardgrass plant response rating: 50
  Plant response rating, Barnyardgrass: 70
Blackgrass [2]
  Plant response rating, Blackgrass: 60
  Blackgrass plant response rating: 20
Corn [3]
  Corn plant response rating: 0
Green foxtail [4]
  Plant response rating, Foxtail, Green: 100
  Foxtail, Green plant response rating: 50
Kochia [5]
  Plant response rating, Kochia: 50
  Kochia plant response rating: 0
oat, wild [6]
  Plant response rating, Oat, Wild: 20
  Oat, Wild plant response rating: 0
pigweed, palmer [7]
  Plant response rating, Pigweed, Palmer: 100
  Pigweed, Palmer plant response rating: 100
Ragweed [8]
  Plant response rating, Ragweed: 60
  Ragweed plant response rating: 30
ryegrass, Italian [9]
  Plant response rating, Ryegrass, Italian: 90
  Ryegrass, Italian plant response rating: 70
Soybean [10]
  Plant response rating, Soybean: 60
  Soybean plant response rating: 60
Wheat [11]
  Plant response rating, Wheat: 20
  Wheat plant response rating: 0
Barnyardgrass [12]; [24]
  Plant response rating, Barnyardgrass: 10
Barnyardgrass [12]; [25]
  Plant response rating, Barnyardgrass: 30
Blackgrass [13]; [24]
  Plant response rating, Blackgrass: 0
Blackgrass [13]; [25]
  Plant response rating, Blackgrass: 0
Corn [14]; [24]
  Plant response rating, Corn: 10
Corn [14]; [25]
  Plant response rating, Corn: 10
Green foxtail [15]; [24]
  Plant response rating, Foxtail, Green: 20
Green foxtail [15]; [25]
  Plant response rating, Foxtail, Green: 30
Kochia [16]; [24]
  Plant response rating, Kochia: 80
Kochia [16]; [25]
  Plant response rating, Kochia: 80
oat, wild [17]; [24]
  Plant response rating, Oat, Wild: 0
oat, wild [17]; [25]
  Plant response rating, Oat, Wild: 0
pigweed, palmer [18]; [24]
  Plant response rating, Pigweed, Palmer: 70
pigweed, palmer [18]; [25]
  Plant response rating, Pigweed, Palmer: 90
Ragweed [19]; [24]
  Plant response rating, Ragweed: 60
Ragweed [19]; [25]
  Plant response rating, Ragweed: 70
ryegrass, Italian [20]; [24]
  Plant response rating, Ryegrass, Italian: 20
ryegrass, Italian [20]; [25]
  Plant response rating, Ryegrass, Italian: 40
Soybean [21]; [24]
  Plant response rating, Soybean: 100
Soybean [21]; [25]
  Plant response rating, Soybean: 100
Wheat [22]; [24]
  Plant response rating, Wheat: 10
Wheat [22]; [25]
  Plant response rating, Wheat: 20
galium; [24]
  Plant response rating, Galium: 80
galium; [25]
  Plant response rating, Galium: 90
horseweed; [24]
  Plant response rating, Horseweed: 0
horseweed; [25]
  Plant response rating, Horseweed: 10
Barnyardgrass [23]
  Plant response rating, Barnyardgrass (Flood): 0
ducksalad
  Plant response rating, Ducksalad (Flood): 0
rice
  Plant response rating, Rice (Flood): 0
sedge, umbrella
  Plant response rating, Sedge, Umbrella (Flood): 0

## CC(C)c1ncn(-c2cc(OC(F)F)c(OC(F)F)c(C(=O)N3C[C@H](C)Oc4c(Cl)cccc43)c2)n1 [Compound 150]
Barnyardgrass [1]
  Barnyardgrass plant response rating: 0
  Plant response rating, Barnyardgrass: 0
Blackgrass [2]
  Plant response rating, Blackgrass: 0
  Blackgrass plant response rating: 0
Corn [3]; Preemergence, 500 g ai/ha, visual rating after 10 days
  Plant response rating, Corn: 0
Corn [3]
  Corn plant response rating: 0
Green foxtail [4]
  Plant response rating, Foxtail, Green: 0
  Foxtail, Green plant response rating: 0
Kochia [5]
  Plant response rating, Kochia: 0
  Kochia plant response rating: 0
oat, wild [6]
  Plant response rating, Oat, Wild: 0
  Oat, Wild plant response rating: 0
pigweed, palmer [7]
  Plant response rating, Pigweed, Palmer: 0
  Pigweed, Palmer plant response rating: 0
Ragweed [8]
  Plant response rating, Ragweed: 20
  Ragweed plant response rating: 0
ryegrass, Italian [9]
  Plant response rating, Ryegrass, Italian: 0
  Ryegrass, Italian plant response rating: 0
Soybean [10]
  Plant response rating, Soybean: 0
  Soybean plant response rating: 0
Wheat [11]
  Plant response rating, Wheat: 0
  Wheat plant response rating: 0
Barnyardgrass [12]; [24]
  Plant response rating, Barnyardgrass: 10
Barnyardgrass [12]; [25]
  Plant response rating, Barnyardgrass: 10
Blackgrass [13]; [24]
  Plant response rating, Blackgrass: 0
Blackgrass [13]; [25]
  Plant response rating, Blackgrass: 0
Corn [14]; [24]
  Plant response rating, Corn: 0
Corn [14]; [25]
  Plant response rating, Corn: 0
Green foxtail [15]; [24]
  Plant response rating, Foxtail, Green: 0
Green foxtail [15]; [25]
  Plant response rating, Foxtail, Green: 0
Kochia [16]; [24]
  Plant response rating, Kochia: 0
Kochia [16]; [25]
  Plant response rating, Kochia: 20
oat, wild [17]; [24]
  Plant response rating, Oat, Wild: 0
oat, wild [17]; [25]
  Plant response rating, Oat, Wild: 0
pigweed, palmer [18]; [24]
  Plant response rating, Pigweed, Palmer: 0
pigweed, palmer [18]; [25]
  Plant response rating, Pigweed, Palmer: 30
Ragweed [19]; [24]
  Plant response rating, Ragweed: 0
Ragweed [19]; [25]
  Plant response rating, Ragweed: 0
ryegrass, Italian [20]; [24]
  Plant response rating, Ryegrass, Italian: 0
ryegrass, Italian [20]; [25]
  Plant response rating, Ryegrass, Italian: 0
Soybean [21]; [24]
  Plant response rating, Soybean: 20
Soybean [21]; [25]
  Plant response rating, Soybean: 50
Wheat [22]; [24]
  Plant response rating, Wheat: 0
Wheat [22]; [25]
  Plant response rating, Wheat: 0
galium; [24]
  Plant response rating, Galium: 0
galium; [25]
  Plant response rating, Galium: 0
horseweed; [24]
  Plant response rating, Horseweed: 0
horseweed; [25]
  Plant response rating, Horseweed: 0
Barnyardgrass [23]
  Plant response rating, Barnyardgrass (Flood): 0
ducksalad
  Plant response rating, Ducksalad (Flood): 0
rice
  Plant response rating, Rice (Flood): 0
sedge, umbrella
  Plant response rating, Sedge, Umbrella (Flood): 0
